Columns and labels:
[1] = OVX rats; 200 mg/kg/day CaEDTA intraperitoneal; weighed weekly
Procedure: The temperature inside the chambers was 22° C. (±2) with relative humidity from 40 to 60%.
The rats were weighed and euthanized with carbon dioxide.

[2] = broad-spectrum divalent-cation chelator; cited from earlier work

For `O=C(O)CN(CCN(CC(=O)O)CC(=O)O)CC(=O)O.[Ca]` [CaEDTA, Calcium ethylenediaminetetra-acetic acid], the “Effect on body weight” value [1] is listed as “no effect on body weight” and the “Affinity for zinc relative to calcium” value [2] is listed as “binds zinc with higher affinity than Calcium”.

— patent US20100056483A1, “METHODS AND COMPOSITIONS FOR THE TREATMENT AND PREVENTION OF BONE LOSS” (OHIO UNIVERSITY, priority 2008, published 2010)
